Assay results taken from patent publication US20210395327A1, “Growth Hormone-Releasing Hormone Antagonists and Uses Thereof” (United States Government As Represented By The Department …, priority 2019, published 2021).
Non-standard residues stand in square brackets, D forms with d. Residues, ends and D or L forms follow the SMILES beside them. *: point of attachment. Phenylacetyl(2,3,4,5,6-F5) = O=C(Cc1c(F)c(F)c(F)c(F)c1F)*; Phe(F5) = N[C@@H](Cc1c(F)c(F)c(F)c(F)c1F)C(=O)O; Phe(4-Cl) = N[C@@H](Cc1ccc(Cl)cc1)C(=O)O; hArg = N=C(N)NCCCC[C@H](N)C(=O)O; 12Ado = NCCCCCCCCCCCC(=O)O; Nle = CCCC[C@H](N)C(=O)O; Abu = CC[C@H](N)C(=O)O

Experiments:
[1] = system: pancreatic cancer PANC-1 xenograft; assay: Xenograft tumor growth in nude mice, PANC-1; assay type: in vivo; conditions: Table 4A, Pancreatic Ca PANC-1, 7 weeks; for % Inhibition: vs control
Protocol: (§1) The peptides' activity was compared with GHRH antagonist MIA-602. All statistical analyzses were performed from comparing GHRA antagonists to non-treated tumor (control).
(§2) Peptides and chemicals. GHRH antagonists MIA-602 and AVR-GHRH antagonists (see Table 2 above) were synthesized by solid phase methods and purified by HPLC. The peptides were dissolved in DMSO and further diluted in 10% 1,2-propanediol. The final concentration of peptides was 50 µg/ml in 10% 1,2-propanediol containing 0.1% of DMSO.
(§3) Cell culture. Human cancer cell lines including pancreatic (PANC-1 and CFPAC-1), lung (HCC827 and H460), stomach (NCI-N87), prostate (PC3), brest (MX-1 and HCC-1806), colorectal (HT-29), and ovarian (SK-OV-3 and OVCAR-3) were obtained from the American Type Culture Collection (ATCC) and cultured at 37° C. in a humidified 95% air/5% CO2 atmosphere in the medium recommended by ATCC.
(§4) Xenograft models of human cancers in nude mice. Female athymic (NCr nu/nu) nude mice, 5- to 6-weeks-old, obtained from the Envigo labs (Tampa, Fla.), were housed in laminar airflow cabinets under pathogen-free conditions with a 12-h light/12-h dark schedule, and were fed autoclaved standard chow and water. To generate mice with xenografted tumors, tumor xenografts were initiated by subcutaneous (s.c.) injection of 107 human cancer cells into female nude mice. After about 4 weeks the resulting tumors were dissected and collected after removing necrosis tissues. The tumors were then cut into particles with size of 3 mm3 and transplanted s.c. by trocar needle into experimental animals. When tumors grew to the size of 50-60 mm3 (by volume), mice were randomized into groups and treated daily for 4-8 weeks by subcutaneous administration of 5 μg of GHRH antagonists MIA-602 or AVR-compounds (2-10 μg as indicated), or vehicle solutions (0.1% DMSO in 10% 1,2-propanediol) respectively. Tumor sizes were measured weekly.
(§5) Statistical analysis. One-way ANOVA followed by Bonferroni comparison were performed. Data are expressed as Mean±SEM. To determine statistical significance between animal groups, two-tailed Student's t-test was conducted. Differences were considered significant when p<0.05.
(§6) Results. […] FIG. 1A-N represents in vivo inhibition of tumor growth during the treatment with GHRH antagonist MIA-602 and selected AVR antagonists in nude mice xenografted with various human tumors including pancreatic cancer PANC-1 (FIG. 1A) and CFPAC-1 (FIG. 1I); lung cancer HCC827 (FIGS. 1B, C) and H460 (FIG. 1H); stomach cancer N87 (FIGS. 1D-F); colon cancer HT-29 (FIG. 1G); breast cancer MX-1 and HCC-1806 (FIGS. 1J, K); ovarian cancer SK-OV-3 and OVACAR-3 (FIGS. 1 L, M) and prostate cancer PC3 (FIG. 1N). See also Table 5.

[2] = system: breast cancer MX-1 xenograft; assay: Xenograft tumor growth in nude mice, MX-1; assay type: in vivo; conditions: Table 4J, Breast Ca MX-1, 4 weeks, 5 μg/day s.c.; for % Inhibition: vs control
Protocol: as §1, §2, §3, §4, §5, §6

[3] = system: prostate cancer PC3 xenograft; assay: Xenograft tumor growth in nude mice, PC3; assay type: in vivo; conditions: Table 4N, Prostate Ca PC3, 8 weeks, 5 μg/day s.c.; for % Inhibition: vs control
Protocol: as §1, §2, §3, §4, §5, §6

MX-1 breast cancer cells = assay: In vitro cell viability, MX-1; assay type: cell-based, human; conditions: Table 3B; 5 μM for 72 H; MIA-602 = 1
Protocol: The inhibitory effects of the various synthesized GHRH antagonists were tested in cell proliferation assays in various human cancer cell lines including stomach cancer (KATOIII, N87), colon cancer (HT-29), urothelial cancer (J82, RT4), pancreatic cancer (PANC-1, CFPAC-1), prostatic cancer (PC3), breast cancer (MX-1, HCC1806), ovarian cancer (SK-OV-3, OVCAR-3) and lung cancer (HCC827, H460).
as §3, with “(NCI-N87 and KATOIII), urothelial (J82, RT4), prostatic” for “(NCI-N87), prostate”, “breast” for “brest”, “HCC 1806),” for “HCC-1806),”
In vitro cell viability. Cell viability was analyzed as follows: cancer cells including pancreatic (PANC-1 and CFPAC-1), lung (HCC827 and H460), stomach (NCI-N87 and KATOIII), urothelial (J82, RT4), prostatic (PC3) and breast (MX-1 and HCC 1806), colorectal (HT-29) and ovarian (SK-OV-3 and OVCAR-3) were grown on 96 well plates to ˜60% confluence, the cells were starved for 24 h in culture medium containing 0.5% FBS. Cells were then treated with GHRH antagonists MIA602 AVR compounds at concentrations of 1, 2.5 or 5 μM, or vehicle (0.1% DMSO) in quintuplicates for 72 hours. The medium was replaced every 48 hours. Cell viability was measured using CellTiter 96 aqueous one solution kit (Promega). Inhibitory effects of tested AVR compounds in comparison to that of MIA602 are presented as inhibitory potency.
Inhibitory effects of selected AVR compounds in comparison to that of MIA602 are presented as inhibitory potency (e.g., percentage of inhibition). […] The cell lines tested including lung cancer HCC827 (FIG. 2A), pancreatic cancer CFPAC-1 (FIG. 2B), stomach cancer N87 (FIG. 2C), colon cancer HT-29 (FIG. 2D), breast cancers MX-1 and HCC1806 (FIGS. 2 E, F). Based on the results of cell proliferation assay after cancer cells were treated with antagonist at concentration of 5 μM for 72H, the relative inhibitory potency of AVR antagonists in comparison to MIA-602 is summarized in Table 3 A and B. Over 60 AVR compounds were tested in 12 cancer cell lines.
Based on the results of cell proliferation assay after cancer cells were treated with antagonist at concentration of 5 µM for 72H, * at concentration of 2 µM for 72 H.

[4] = system: ovarian cancer SK-OV-3 xenograft; assay: Xenograft tumor growth in nude mice, SK-OV-3; assay type: in vivo; conditions: Table 4L, Ovarian Ca SK-OV-3, 7 weeks; for % Inhibition: vs control
Protocol: as §1, §2, §3, §4, §5, §6

Row | Compound | Tumor Growth % ([1]; 5 μg/day s.c.) | % Inhibition ([1]; 5 μg/day s.c.) | Tumor Growth % [2] | % Inhibition [2] | Tumor Size (mm3) [3] | % Inhibition [3] | Tumor Growth % ([1]; 2.5 μg/day s.c.) | % Inhibition ([1]; 2.5 μg/day s.c.) | In vitro relative inhibitory potency in comparison to MIA-602, MX-1 (MX-1 breast cancer cells) | Tumor Size (mm3) ([4]; 2.5 μg/day s.c.) | % Inhibition ([4]; 2.5 μg/day s.c.) | Tumor Size (mm3) ([4]; 5 μg/day s.c.) | % Inhibition ([4]; 5 μg/day s.c.)
1 | CCCC[C@H](NC(=O)[C@@H](NC(=O)[C@H](CC(=O)O)NC(=O)[C@H](CCC(N)=O)NC(=O)[C@H](CC(C)C)NC(=O)[C@H](CC(C)C)NC(=O)[C@H](CCCCN)NC(=O)[C@H](CCCNC(=N)N)NC(=O)[C@H](C)NC(=O)[C@H](CO)NC(=O)[C@H](CC(C)C)NC(=O)[C@H](CCC(N)=O)NC(=O)[C@H](CC)NC(=O)[C@H](CC(C)C)NC(=O)[C@@H](NC(=O)[C@H](CCCCN)NC(=O)[C@H](CCCNC(=N)N)NC(=O)[C@H](Cc1ccc(OC)cc1)NC(=O)[C@H](CCCCNC(=N)N)NC(=O)[C@H](CC(N)=O)NC(=O)[C@@H](NC(=O)[C@H](Cc1ccc(Cl)cc1)NC(=O)[C@@H](NC(=O)[C@H](C)NC(=O)[C@H](CC(=O)O)NC(=O)[C@@H](CCCNC(=N)N)NC(=O)[C@H](Cc1ccc(O)cc1)NC(=O)CCCCCCCCCCCNC(=O)Cc1c(F)c(F)c(F)c(F)c1F)[C@@H](C)CC)[C@@H](C)O)C(C)C)[C@@H](C)CC)C(=O)N[C@H](CCCNC(=N)N)C(=O)N[C@@H](CCCCNC(=N)N)C(=O)NCCCCCCCCCCCC(N)=O [AVR-333, 5FPhAC-Ada-Tyr-DArg-Asp-Ala-Ile-Cpa-Thr-Asn-Har-Tyr(Me)-Arg-Lys-Val-Leu-Abu-Gln-Leu-Ser-Ala-Arg-Lys-Leu-Leu-Gln-Asp-Ile-Nle-DArg-Har-Ada-NH2] ({Phenylacetyl(2,3,4,5,6-F5)-12Ado}-Y[dR]DAI[Phe(4-Cl)]TN[hArg]Y(Me)RKVL[Abu]QLSARKLLQDI[Nle][dR][hArg][12Ado]-NH2) | 1384.4% | 48.2% | – | – | – | – | – | – | – | – | – | – | –
2 | CCCC[C@H](NC(=O)[C@@H](NC(=O)[C@H](CC(=O)O)NC(=O)[C@H](CCC(N)=O)NC(=O)[C@H](CC(C)C)NC(=O)[C@H](CC(C)C)NC(=O)[C@H](CCCCN)NC(=O)[C@H](CCCNC(=N)N)NC(=O)[C@H](C)NC(=O)[C@H](CO)NC(=O)[C@H](CC(C)C)NC(=O)[C@H](CCC(N)=O)NC(=O)[C@H](CC)NC(=O)[C@H](CC(C)C)NC(=O)[C@@H](NC(=O)[C@H](CCCCN)NC(=O)[C@H](CCCNC(=N)N)NC(=O)[C@H](Cc1ccc(OC)cc1)NC(=O)[C@H](CCCCNC(=N)N)NC(=O)[C@H](C)NC(=O)[C@@H](NC(=O)[C@H](Cc1c(F)c(F)c(F)c(F)c1F)NC(=O)[C@@H](NC(=O)[C@H](C)NC(=O)[C@H](CC(=O)O)NC(=O)[C@@H](CCCNC(=N)N)NC(=O)[C@H](Cc1ccc(O)cc1)NC(=O)CCCCCCCCCCCNC(=O)Cc1c(F)c(F)c(F)c(F)c1F)[C@@H](C)CC)[C@@H](C)O)C(C)C)[C@@H](C)CC)C(=O)N[C@H](CCCNC(=N)N)C(=O)N[C@@H](CCCCNC(=N)N)C(=O)NCCCCCCCCCCCC(N)=O [AVR-352, 5FPhAC-Ada-Tyr-DArg-Asp-Ala-Ile-5FPhe-Thr-Ala-Har-Tyr(Me)-Arg-Lys-Val-Leu-Abu-Gln-Leu-Ser-Ala-Arg-Lys-Leu-Leu-Gln-Asp-Ile-Nle-DArg-Har-Ada-NH2] ({Phenylacetyl(2,3,4,5,6-F5)-12Ado}-Y[dR]DAI[Phe(F5)]TA[hArg]Y(Me)RKVL[Abu]QLSARKLLQDI[Nle][dR][hArg][12Ado]-NH2) | 1456.9% | 45.4% | 673.2% | 39.5% | 413.3 mm3 | 50.0% | 2073.0% | 22.4% | 2.793 | 718.4 mm3 | 45.0% | 422.3 mm3 | 67.7%
3 | CCCC[C@H](NC(=O)[C@@H](NC(=O)[C@H](CC(=O)O)NC(=O)[C@H](CCC(N)=O)NC(=O)[C@H](CC(C)C)NC(=O)[C@H](CC(C)C)NC(=O)[C@H](CCCCN)NC(=O)[C@H](CCCNC(=N)N)NC(=O)[C@H](C)NC(=O)[C@H](CO)NC(=O)[C@H](CC(C)C)NC(=O)[C@H](CCC(N)=O)NC(=O)[C@H](CC)NC(=O)[C@H](CC(C)C)NC(=O)[C@@H](NC(=O)[C@H](CCCCN)NC(=O)[C@H](CCCNC(=N)N)NC(=O)[C@H](Cc1c(F)c(F)c(F)c(F)c1F)NC(=O)[C@H](CCCCNC(=N)N)NC(=O)[C@H](C)NC(=O)[C@@H](NC(=O)[C@H](Cc1ccc(Cl)cc1)NC(=O)[C@@H](NC(=O)[C@H](C)NC(=O)[C@H](CC(=O)O)NC(=O)[C@@H](CCCNC(=N)N)NC(=O)[C@H](Cc1ccc(O)cc1)NC(=O)CCCCCCCCCCCNC(=O)Cc1c(F)c(F)c(F)c(F)c1F)[C@@H](C)CC)[C@@H](C)O)C(C)C)[C@@H](C)CC)C(=O)N[C@H](CCCNC(=N)N)C(=O)N[C@@H](CCCCNC(=N)N)C(=O)NCCCCCCCCCCCC(=O)NC [AVR-354] ({Phenylacetyl(2,3,4,5,6-F5)-12Ado}-Y[dR]DAI[Phe(4-Cl)]TA[hArg][Phe(F5)]RKVL[Abu]QLSARKLLQDI[Nle][dR][hArg][12Ado]-NHMe) | – | – | 488.3% | 56.2% | 343.6 mm3 | 58.4% | – | – | 1.594 | – | – | – | –
